Patent publication US20170121315A1, “HETEROBICYCLICALLY SUBSTITUTED 4-OXOBUTANE ACID DERIVATIVES AND USE THEREOF” (priority 2014, published 2017)

Assays:
Format in all cases: biochemical
MMP-14 = target: T1, MMP-14 (Homo sapiens, UniProt P50281); experiment: In vitro MMP-14 inhibition test; conditions: human MMP-14
T1 construct: purchased R&D Systems 918-MP
In short: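 Recombinant MMP-14, furin-activated, at e.g. 0.5 nM final in 50 mM Tris/HCl pH 7.5, 10 mM CaCl2, 150 mM NaCl, 0.05% Brij-35. Started with quenched Mca-Lys-Pro-Leu-Gly-Leu-Dpa(Dnp)-Ala-Arg-NH2 (e.g. 5 μM final); fluorescence (ex 320/em 410 nm) followed e.g. 120 min at 32 °C. IC50 at 50% signal.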

MMP-2 = target: T2, MMP-2 (Homo sapiens, UniProt P08253); experiment: In vitro MMP-2 inhibition test; conditions: human MMP-2
T2 construct: purchased R&D Systems 902-MP
T2 sequence (P08253 110-660): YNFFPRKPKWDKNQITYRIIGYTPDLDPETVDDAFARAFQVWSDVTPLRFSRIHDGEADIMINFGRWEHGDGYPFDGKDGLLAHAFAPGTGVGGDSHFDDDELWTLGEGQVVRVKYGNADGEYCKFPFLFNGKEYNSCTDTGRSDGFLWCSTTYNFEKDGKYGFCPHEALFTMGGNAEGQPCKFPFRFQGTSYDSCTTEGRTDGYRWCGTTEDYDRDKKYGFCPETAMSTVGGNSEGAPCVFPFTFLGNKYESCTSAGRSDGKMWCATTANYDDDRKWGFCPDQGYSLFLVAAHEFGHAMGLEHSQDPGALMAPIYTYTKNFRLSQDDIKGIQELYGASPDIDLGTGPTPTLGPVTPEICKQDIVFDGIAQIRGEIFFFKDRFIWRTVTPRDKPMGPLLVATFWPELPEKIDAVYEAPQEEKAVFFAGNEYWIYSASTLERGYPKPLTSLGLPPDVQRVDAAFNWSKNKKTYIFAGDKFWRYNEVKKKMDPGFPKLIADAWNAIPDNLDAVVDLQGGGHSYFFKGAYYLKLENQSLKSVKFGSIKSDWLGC
In short: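 APMA-activated recombinant MMP-2 (final e.g. 2 nM) with compound (e.g. 1 nM to 30 μM) in Tris/HCl pH 7.5 buffer with CaCl2, NaCl, Brij-35. Reaction started with quenched Mca-PLGL-Dpa(Dnp)-AR-NH2 substrate (final e.g. 10 μM); fluorescence (ex 320/em 410 nm) followed e.g. 120 min at 32 °C; IC50 at 50% signal.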

MMP-9 = target: T3, MMP-9 (Homo sapiens, UniProt P14780); experiment: In vitro MMP-9 inhibition test; conditions: human MMP-9
T3 construct: purchased R&D Systems 911-MP
In short: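 Recombinant MMP-9, APMA-activated, at ~0.1 nM final in 50 mM Tris/HCl pH 7.5, 10 mM CaCl2, 150 mM NaCl, 0.05% Brij-35, with compound in DMSO (e.g. 1 nM–30 μM). Reaction started with 10 μM Mca-PLGL-Dpa(Dnp)-AR-NH2, and fluorescence (ex 320/em 410 nm) was followed e.g. 120 min at 32 °C. IC50 is the concentration giving 50% signal.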

MMP-8 = target: T4, MMP-8 (Homo sapiens, UniProt P22894); experiment: In vitro MMP-8 inhibition test; conditions: human MMP-8
T4 construct: purchased R&D Systems 908-MP
In short: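 Recombinant APMA-activated MMP-8 (e.g. 0.5 nM final) incubated with compound in 50 mM Tris/HCl pH 7.5, 10 mM CaCl2, 150 mM NaCl, 0.05% Brij-35. Reaction started with quenched Mca-PLGL-Dpa(Dnp)-AR-NH2 substrate (e.g. 10 μM final); fluorescence (ex 320/em 410 nm) followed e.g. 120 min at 32 °C; IC50 at 50% signal.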

T3 sequence (P14780 107-707 limits assumed): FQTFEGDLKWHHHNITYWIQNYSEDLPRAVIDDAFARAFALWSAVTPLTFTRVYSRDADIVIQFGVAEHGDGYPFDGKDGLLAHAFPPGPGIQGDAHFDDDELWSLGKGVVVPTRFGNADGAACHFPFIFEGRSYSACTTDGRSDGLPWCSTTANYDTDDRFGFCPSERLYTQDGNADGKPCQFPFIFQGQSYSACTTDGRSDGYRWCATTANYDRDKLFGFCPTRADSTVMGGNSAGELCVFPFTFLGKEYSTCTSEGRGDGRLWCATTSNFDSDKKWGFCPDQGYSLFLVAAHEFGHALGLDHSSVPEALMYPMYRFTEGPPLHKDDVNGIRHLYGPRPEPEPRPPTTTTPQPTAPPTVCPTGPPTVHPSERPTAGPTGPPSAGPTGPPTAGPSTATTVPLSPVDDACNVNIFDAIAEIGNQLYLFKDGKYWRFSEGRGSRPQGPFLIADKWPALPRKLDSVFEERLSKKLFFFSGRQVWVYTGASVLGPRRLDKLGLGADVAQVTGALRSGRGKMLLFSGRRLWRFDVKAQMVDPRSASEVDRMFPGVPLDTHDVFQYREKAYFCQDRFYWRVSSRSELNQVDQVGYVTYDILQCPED
T4 sequence (P22894 101-467): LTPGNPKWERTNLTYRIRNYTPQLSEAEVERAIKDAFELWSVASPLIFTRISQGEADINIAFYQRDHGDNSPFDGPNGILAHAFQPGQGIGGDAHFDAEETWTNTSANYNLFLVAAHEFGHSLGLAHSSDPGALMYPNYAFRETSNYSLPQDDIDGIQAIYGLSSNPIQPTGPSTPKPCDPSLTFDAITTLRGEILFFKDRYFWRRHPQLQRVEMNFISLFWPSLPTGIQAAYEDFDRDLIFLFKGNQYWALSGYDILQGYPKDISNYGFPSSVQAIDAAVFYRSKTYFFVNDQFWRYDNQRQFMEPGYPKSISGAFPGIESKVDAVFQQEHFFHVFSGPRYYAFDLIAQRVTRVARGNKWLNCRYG

Structure (SMILES) | IC50 (MMP-14) [µM] | IC50 (MMP-2) [nM] | IC50 (MMP-9) [nM] | IC50 (MMP-8) [nM]
O=C(CC(CCn1nnc2ccccc2c1=O)C(=O)O)c1noc2cc(OCc3cccnc3)ccc12 (racemic) [Example 148, (+/−)-4-Oxo-2-[2-(4-oxo-1,2,3-benzotriazin-3(4H)-yl)ethyl]-4-[6-(pyridin-3-ylmethoxy)-1,2-benzoxazol-3-yl]butanoic acid] | 8.5 | 270 | 910 | 270
O=C(CC(CCn1nnc2ccccc2c1=O)C(=O)O)c1cc2cc(OCC3CCOCC3)ccc2o1 (racemic) [Example 5, (+/−)-4-Oxo-2-[2-(4-oxo-1,2,3-benzotriazin-3(4H)-yl)ethyl]-4-[5-(tetrahydro-2H-pyran-4-ylmethoxy)-1-benzofur-2-yl]butanoic acid] | 34 | 5000 | 9100 | 7700
O=C(CC(CCn1nnc2ccccc2c1=O)C(=O)O)c1coc2cc(OCC3CCCCC3)ccc12 (single isomer, unassigned; (+)) [Example 82, (+)-4-[6-(Cyclohexylmethoxy)-1-benzofur-3-yl]-4-oxo-2-[2-(4-oxo-1,2,3-benzotriazin-3(4H)-yl)ethyl]butanoic acid] | 2.5 | 170 | 94 | 580
